How the values were obtained:
Format in all cases: in vivo, C57BL/6J mice
NAFLD-induced mice [1] = test: Steatosis score (H&E histology) in mouse model of NAFLD induced by high-fat high-cholesterol diet and fructose drinking water (Example 1); details: high-fat high-cholesterol diet containing 0.016% of compound for 12 weeks; vs Control group; FIG. 1
Text: (§1) Eight-week-old C57BL/6J mice were supplied with a high-fat high-cholesterol diet (60% fat and 0.5% cholesterol) and drinking water containing 4.2% fructose for 16 weeks so as to induce non-alcoholic fatty liver disease (NAFLD).
(§2) After the supply of a high-fat high-cholesterol diet for 4 weeks, the diet was replaced with another high-fat high-cholesterol diet prepared to contain Compound 1 at a concentration of 0.016% and supplied for an additional 12 weeks, and the livers were removed by autopsy on the final day of the test. Parts of the removed livers were fixed in a 10% formalin solution for histopathology and tissue slides were prepared therefrom and subjected to H&E staining, whereas other parts of the removed livers were used for quantitative real-time PCR (qRT-PCR) analysis.
The normal mice (not induced with NAFLD, denoted by “Normal” in drawings) and the mice induced with NAFLD using a high-fat high-cholesterol diet and fructose-containing drinking water (denoted by “Control” in drawings) were used as the control group. […]

[2] = tested on: mRNA expression levels of Srebp1, TIMP1 and Col1a1 in liver tissues; test: Liver mRNA expression by qRT-PCR in mouse model of NAFLD induced by high-fat high-cholesterol diet (Example 1); details: 0.016% in diet, 12 weeks; vs Control group; relative to Normal group; FIG. 2
Text: as §1, §2
(§3) Furthermore, the relative expression level of mRNA in Normal group was calculated by qRT-PCR. Specifically, the mRNA expression levels of Srebp1 (i.e., a gene marker associated with lipid synthesis), and TIMP1 and Col1a1 (i.e., gene markers associated with fibrosis), etc. were measured through the SYBR-green RT-PCR analysis of the removed liver tissues described above, and the relative expression levels were calculated based on those of Normal group and are shown in FIG. 2. The calculated data were expressed in mean and standard deviation, and the significance of statistical differences between groups was confirmed using Student's t-test (*; p<0.05).

NAFLD-induced mice [3] = test: Steatosis score in mouse model of NAFLD induced by STZ administration and high-fat diet (Example 2); details: oral, FIG. 3
Procedure: The normal mice (not induced with NAFLD, denoted by “Normal” in drawings) and the mice induced with NAFLD using a high-fat high-cholesterol diet and fructose-containing drinking water (denoted by “Control” in drawings) were used as the control group. Specifically, histological scoring was performed in the same manner as in the clinical pathology scoring as follows: score 0 when the area occupied by fat in the liver tissue is less than 5%, score 1 when the area occupied by fat in the liver tissue is 5% to 33%, score 2 when the area occupied by fat in the liver tissue is 34% to 66%, and score 3 when the area occupied by fat in the liver tissue exceeds 66%.
(§4) Two-day-old C57BL/6J mice were administered with streptozotocin (STZ, 200 μg). Since the time the mice were 5 weeks old, they were supplied with a high-fat diet (60% fat) so as to induce NAFLD. […] The steatosis scores and relative mRNA expression levels were calculated in the same manner as in Example 1, and the results are shown in FIGS. 3 and 4, respectively. The calculated results were expressed in mean and standard deviation, and the significance of statistical differences between the groups was confirmed using Student's t-test (*; p<0.05).

[4] = tested on: expression levels of the gene (mRNA) associated with lipid synthesis, inflammation, and fibrosis; test: Liver mRNA expression by qRT-PCR in mouse model of NAFLD induced by STZ administration and high-fat diet (Example 2); details: oral, 1 mg/kg, 3 mg/kg, and mg/kg for 4 weeks; vs Control group; FIG. 4
Procedure: as §3, §4

NAFLD-induced mice [5] = test: NAFLD activity score (NAS) in mouse model of NAFLD induced by STZ administration and high-fat diet (Example 3); details: 10 mg/kg; for Steatosis Score 0 (number of mice): score 0 = <5%; for Hepatocyte Ballooning Score 0 (number of mice): score 0 = None; for Steatosis Score 1 (number of mice): score 1 = 5% to 33%; for Lobular Inflammation Score 1 (number of mice): score 1 = <2 Foci/200×; for Hepatocyte Ballooning Score 1 (number of mice): score 1 = Some balloon cells; for Lobular Inflammation Score 2 (number of mice): score 2 = 2 to 4 Foci/200×; for Lobular Inflammation Score 3 (number of mice): score 3 = >4 Foci/200×
Procedure: Two-day-old C57BL/6J mice were administered with streptozotocin (STZ, 200 μg). Since the time the mice were 5 weeks old, they were supplied with a high-fat diet (60% fat) so as to induce NAFLD. The mouse model is an experimental animal model that is known to be capable of inducing diseases ranging from diabetes, fatty liver, steatohepatitis, liver fibrosis, to liver cancer within a short period of time of 20 weeks of age. Specifically, since the time the mice were 6 weeks old, they were orally administered with vehicle (0.5% hydroxypropyl methylcellulose+0.1% Tween 80) or Compound 1, which were prepared at various concentrations, at each concentration of 1 mg/kg, 3 mg/kg, and 10 mg/kg for 4 weeks, and the livers were removed by autopsy on the final day of the test. Parts of the removed livers were fixed in a 10% formalin solution for histopathology and tissue slides were prepared therefrom and subjected to H&E staining, whereas other parts of the removed livers were used for qRT-PCR analysis. The steatosis scores and relative mRNA expression levels were calculated in the same manner as in Example 1, and the results are shown in FIGS. 3 and 4, respectively. The calculated results were expressed in mean and standard deviation, and the significance of statistical differences between the groups was confirmed using Student's t-test (*; p<0.05).
As in Example 2, vehicle or Compound 1 at a dose of 10 mg/kg was administered to the animal model in which NAFLD was induced by STZ administration and a high-fat diet. […] Additionally, two comparative groups were prepared by administering each of obeticholic acid (OCA, product name: Ocaliva) and compound A (having the same mechanism of action with Compound 1) at a dose of 10 mg/kg each, instead of vehicle or Compound 1. NAS values were respectively calculated for Normal group, the vehicle group, Compound 1 (10 mg/kg) group, and the two comparative groups (OCA-administered and compound A-administered groups), as shown in Table 2. NAS represents the sum of the scores for respective symptoms, i.e., steatosis, lobular inflammation, and hepatocyte ballooning, and the scoring for each symptom was based on the criteria described in Table 1 below. Each group consisted of 8 mice, and the NAS value is defined as the sum of the mean scores from each symptom. As NAS value is higher, NAFLD is more severe. For example, when NAS value is 3 to 4 points, the mouse can be suspected to have non-alcoholic steatohepatitis (NASH), whereas when NAS value is 5 points or higher, the mouse can be determined to have NASH.

NAFLD-induced mice [6] = test: Degree of liver fibrosis by Sirius Red staining in STZ and high-fat diet NAFLD mouse model (Example 3); details: 10 mg/kg; fibrosis area increased by NASH induction; FIG. 6
Procedure: as §4, with “NAFLD. The mouse model is an experimental animal model that is known to be capable of inducing diseases ranging from diabetes, fatty liver, steatohepatitis, liver fibrosis, to liver cancer within a short period of time of 20 weeks of age.” for “NAFLD.”
As in Example 2, vehicle or Compound 1 at a dose of 10 mg/kg was administered to the animal model in which NAFLD was induced by STZ administration and a high-fat diet. […] NAS values were respectively calculated for Normal group, the vehicle group, Compound 1 (10 mg/kg) group, and the two comparative groups (OCA-administered and compound A-administered groups), as shown in Table 2. […] For example, when NAS value is 3 to 4 points, the mouse can be suspected to have non-alcoholic steatohepatitis (NASH), whereas when NAS value is 5 points or higher, the mouse can be determined to have NASH. […]

[7] = Blood lipid levels in STZ and high-fat diet NAFLD mouse model (Example 4); details: 1 mg/kg, 3 mg/kg, and 10 mg/kg; compared to vehicle administered group; FIG. 7
Procedure: as §4, with “NAFLD. The mouse model is an experimental animal model that is known to be capable of inducing diseases ranging from diabetes, fatty liver, steatohepatitis, liver fibrosis, to liver cancer within a short period of time of 20 weeks of age.” for “NAFLD.”
Blood specimens were secured before autopsy by collecting blood samples from an experimental animal model prepared as in Example 2, in which NAFLD was induced by administering STZ and supplying a high-fat diet, and to which Compound 1 was administered at doses of 1 mg/kg, 3 mg/kg, and 10 mg/kg. The obtained blood samples were centrifuged to separate blood plasma, and the remaining samples were analyzed for blood lipid levels (e.g., levels of total cholesterol, high-density lipoprotein (HDL), and low-density lipoprotein (LDL)) using a biochemical analyzer (Hitachi 7100), and the results are shown in FIG. 7. […]

## CCCCC1(CCCC)CN(c2ccc(F)cc2)c2cc(SC)c(CNCC(=O)O)cc2S(=O)(=O)C1 [Compound 1, 2-(((3,3-dibutyl-5-(4-fluorophenyl)-7-methylthio-1,1-dioxido-2,3,4,5-tetrahydrobenzo[b][1,4]thiazepin-8-yl)methyl)amino)acetic acid]
NAFLD-induced mice [1]
  steatosis score: significant decrease in steatosis score close to that of Normal group
[2]
  mRNA level of Col1a1 (liver): remarkable decrease with statistical significance
  mRNA level of Srebp1 (liver): remarkable decrease with statistical significance
  mRNA level of TIMP1 (liver): remarkable decrease with statistical significance
NAFLD-induced mice [3]; 1 mg/kg, 3 mg/kg and 10 mg/kg for 4 weeks, vs vehicle Control group
  steatosis score: lower steatosis scores
NAFLD-induced mice [3]; dose of 1 mg/kg for 4 weeks, vs vehicle
  steatosis score: reduced steatosis score
[4]
  expression levels of the gene (mRNA) associated with lipid synthesis, inflammation, and fibrosis: significant decreases
NAFLD-induced mice [5]; compared to comparative groups OCA and Compound A at identical dose, FIG. 5
  NAS (NAFLD activity score): significantly reduced NAS values
NAFLD-induced mice [5]; n=8 mice per group
  Steatosis Score 0 (number of mice): 4
  Hepatocyte Ballooning Score 0 (number of mice): 6
  Steatosis Score 1 (number of mice): 4
  Lobular Inflammation Score 1 (number of mice): 2
  Hepatocyte Ballooning Score 1 (number of mice): 1
  Lobular Inflammation Score 2 (number of mice): 5
  Lobular Inflammation Score 3 (number of mice): 1
NAFLD-induced mice [5]; n=8 mice per group, score 2 = Many cells/Prominent ballooning
  Hepatocyte Ballooning Score 2 (number of mice): 1
NAFLD-induced mice [6]
  fibrosis area (Sirius Red positive area): significant decrease in the fibrosis area
[7]
  blood level of HDL: higher level of HDL
  blood level of LDL: lower level of LDL

## CC[C@H]1[C@@H](O)[C@@H]2[C@H](CC[C@]3(C)[C@@H]([C@H](C)CCC(=O)O)CC[C@@H]23)[C@@]2(C)CC[C@@H](O)C[C@@H]12 [OCA, obeticholic acid, reference compound]
NAFLD-induced mice [5]; n=8 mice per group
  Steatosis Score 0 (number of mice): 2
  Hepatocyte Ballooning Score 0 (number of mice): 4
  Steatosis Score 1 (number of mice): 6
  Lobular Inflammation Score 1 (number of mice): 1
  Hepatocyte Ballooning Score 1 (number of mice): 4
  Lobular Inflammation Score 2 (number of mice): 5
  Lobular Inflammation Score 3 (number of mice): 2
